Assays:
A549 cells = assay: Measurement of PGE2-increasing activity in A549 cells (IL-1β stimulated, PGE2 quantified in supernatant); assay type: cell-based; conditions: Homo sapiens, 24 h; concentration of 1 µM of each compound; IL-1β treated A549 cells; read-out: Increased PGE2 production in A549 cells
Procedure, shortened: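 PGE2 secreted into the supernatant was measured by immunoassay 24 h after treatment. Before treatment, A549 cells were cultured 24 h in 10% FBS F12K, washed, and placed in serum-free medium containing compound (DMSO 0.1% final) plus or minus IL-1β, incubated at 37 °C, 5% CO2.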

human 15-PGDH = target: T1, human 15-PGDH (Homo sapiens, UniProt P15428); assay: Evaluation of 15-PGDH inhibitory activity (fluorescence enzyme assay, NAD+/PGE2); assay type: biochemical; conditions: human 15-PGDH enzyme, fluorescence Vmax
T1 construct: purchased R&D System 5660-DH
T1 sequence (P15428 1-266): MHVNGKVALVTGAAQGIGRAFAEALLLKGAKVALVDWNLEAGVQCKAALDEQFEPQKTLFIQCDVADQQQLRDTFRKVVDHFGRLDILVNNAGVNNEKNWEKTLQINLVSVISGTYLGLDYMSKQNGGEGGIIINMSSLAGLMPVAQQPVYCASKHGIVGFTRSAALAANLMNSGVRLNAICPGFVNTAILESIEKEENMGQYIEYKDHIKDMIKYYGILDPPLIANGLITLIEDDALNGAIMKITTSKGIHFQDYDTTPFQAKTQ
Method: 15-PGDH inhibition activity of Example compounds was measured as follows. 6.7 ng of human 15-PGDH (R&D System# 5660-DH) enzyme (10 µL) was added to a black 96 well plate, 60 µL of buffer (50 mM Tris-HCl, pH 7.5, 0.01% Tween 20) was added, and 10 µL of 200 µM β-Nicotinamide adenine dinucleotide sodium salt (Sigma, Cat# N0632-5G) was added. 10 µL of (10x) compound solution in DMSO was added and reacted for 10 minutes at room temperature.

In the case of `Cn1nc(N)c2ccc(-c3cccc4c(C(=O)N5CCCCC5)cnn34)cc21` [Example 310, [7-(3-amino-1-methyl-indazol-6-yl)pyrazolo[1,5-a]pyridin-3-yl]-(1-piperidyl)methanone], the fold induction at 1 µM (A549 cells) is reported as > 1.5 and the IC50 (human 15-PGDH) is reported as ≤ 100 nM.
For `O=C(Cc1cccnc1)Nc1ncc(-c2cccc3c(C(=O)N4CCCCC4)cnn23)cc1Cl` [Example 311, N-(3-chloro-5-(3-(piperidine-1-carbonyl)pyrazolo[1,5-a]pyridin-7-yl)pyridin-2-yl)-2-(pyridin-3-yl)acetamide], the fold induction at 1 µM (A549 cells) was > 1.5 and the IC50 (human 15-PGDH) was ≤ 100 nM.
`N#Cc1cc(-c2cccc3c(C(=O)N4CCCCC4)cnn23)cc([N+](=O)[O-])c1` [Example 312, 3-nitro-5-(3-(piperidine-1-carbonyl)pyrazolo[1,5-a]pyridin-7-yl)benzonitrile] was tested, and the fold induction at 1 µM (A549 cells) was > 1.5 and the IC50 (human 15-PGDH) was ≤ 100 nM.
`O=C(c1cnn2c(-c3ccc(Br)nc3)cccc12)N1CCCCC1` [Example 313, (7-(6-bromopyridin-3-yl)pyrazolo[1,5-a]pyridin-3-yl)(piperidin-1-yl)methanone] was tested, and the fold induction at 1 µM (A549 cells) was > 1.5 and the IC50 (human 15-PGDH) was ≤ 100 nM.
For `O=C(c1cnn2c(-c3ccc(Cl)nc3)cccc12)N1CCCCC1` [Example 314, (7-(6-chloropyridin-3-yl)pyrazolo[1,5-a]pyridin-3-yl)(piperidin-1-yl)methanone], the fold induction at 1 µM (A549 cells) was > 1.5 and the IC50 (human 15-PGDH) was ≤ 100 nM.
`O=C(c1cnn2c(-c3ccc(Cl)nc3F)cccc12)N1CCCCC1` [Example 315, (7-(6-chloro-2-fluoropyridin-3-yl)pyrazolo[1,5-a]pyridin-3-yl)(piperidin-1-yl)methanone] was tested, and the fold induction at 1 µM (A549 cells) was > 1.5 and the IC50 (human 15-PGDH) was ≤ 100 nM.
In the case of `O=C(c1cnn2c(-c3ccc(N4CCOC4=O)nc3)cccc12)N1CCCCC1` [Example 316, 3-(5-(3-(piperidine-1-carbonyl)pyrazolo[1,5-a]pyridin-7-yl)pyridin-2-yl)oxazolidin-2-one], the fold induction at 1 µM (A549 cells) is reported as > 1.5 and the IC50 (human 15-PGDH) is reported as ≤ 100 nM.
`Cc1nc(-c2ncc(-c3cccc4c(C(=O)N5CCCCC5)cnn34)cn2)no1` [Example 317, [7-[2-(5-methyl-1,2,4-oxadiazol-3-yl)pyrimidin-5-yl]pyrazolo[1,5-a]pyridin-3-yl]-(1-piperidyl)methanone] was tested, and the fold induction at 1 µM (A549 cells) was > 1.5 and the IC50 (human 15-PGDH) was ≤ 100 nM.
`O=C(c1cnn2c(-c3cncc([N+](=O)[O-])c3)cccc12)N1CCCCC1` [Example 318, (7-(5-nitropyridin-3-yl)pyrazolo[1,5-a]pyridin-3-yl)(piperidin-1-yl)methanone] was tested, and the fold induction at 1 µM (A549 cells) was > 1.5 and the IC50 (human 15-PGDH) was ≤ 100 nM.
With `Cc1nc(-c2cncc(-c3cccc4c(C(=O)N5CCCCC5)cnn34)c2)no1` [Example 319, (7-(5-(5-methyl-1,2,4-oxadiazol-3-yl)pyridin-3-yl)pyrazolo[1,5-a]pyridin-3-yl)(piperidin-1-yl)methanone] the fold induction at 1 µM (A549 cells) was > 1.5 and the IC50 (human 15-PGDH) was ≤ 100 nM.
For `Nc1noc2cc(-c3cccc4c(C(=O)N5CCCCC5)cnn34)ccc12` [Example 320, [7-(3-amino-1,2-benzoxazol-6-yl)pyrazolo[1,5-a]pyridin-3-yl]-(1-piperidyl)methanone], the fold induction at 1 µM (A549 cells) was > 1.5 and the IC50 (human 15-PGDH) was ≤ 100 nM.
In the case of `O=C(c1cnn2c(-c3cnc(-c4noc(=O)[nH]4)nc3)cccc12)N1CCCCC1` [Example 321, 3-[5-[3-(piperidine-1-carbonyl)pyrazolo[1,5-a]pyridin-7-yl]pyrimidin-2-yl]-4H-1,2,4-oxadiazol-5-one], the fold induction at 1 µM (A549 cells) is reported as > 1.5 and the IC50 (human 15-PGDH) is reported as ≤ 100 nM.
In the case of `Cc1nc(-c2cc(F)cc(-c3cccc4c(C(=O)N5CCCCC5)cnn34)c2)no1` [Example 322, (7-(3-fluoro-5-(5-methyl-1,2,4-oxadiazol-3-yl)phenyl)pyrazolo[1,5-a]pyridin-3-yl)(piperidin-1-yl)methanone], the fold induction at 1 µM (A549 cells) is reported as > 1.5 and the IC50 (human 15-PGDH) is reported as ≤ 100 nM.
For `O=C(c1cnn2c(-c3cnc(N4CCOC4=O)c(F)c3)cccc12)N1CCCCC1` [Example 323, 3-(3-fluoro-5-(3-(piperidine-1-carbonyl)pyrazolo[1,5-a]pyridin-7-yl)pyridin-2-yl)oxazolidin-2-one], the fold induction at 1 µM (A549 cells) was > 1.5 and the IC50 (human 15-PGDH) was ≤ 100 nM.
In the case of `Cc1noc(C)c1-c1ccc(-c2cccc3c(C(=O)N4CCCCC4)cnn23)cc1` [Example 324, [7-[4-(3,5-dimethylisoxazol-4-yl)phenyl]pyrazolo[1,5-a]pyridin-3-yl]-(1-piperidyl)methanone], the fold induction at 1 µM (A549 cells) is reported as > 1.5 and the IC50 (human 15-PGDH) is reported as ≤ 100 nM.
In the case of `Cn1nccc1-c1cnc(F)c(-c2cccc3c(C(=O)N4CCCCC4)cnn23)c1` [Example 325, (7-(2-fluoro-5-(1-methyl-1H-pyrazol-5-yl)pyridin-3-yl)pyrazolo[1,5-a]pyridin-3-yl)(piperidin-1-yl)methanone], the fold induction at 1 µM (A549 cells) is reported as > 1.5 and the IC50 (human 15-PGDH) is reported as ≤ 100 nM.
With `O=C(Nc1cncc(-c2cccc3c(C(=O)N4CCCCC4)cnn23)c1)c1cccnc1` [Example 326, N-(5-(3-(piperidine-1-carbonyl)pyrazolo[1,5-a]pyridin-7-yl)pyridin-3-yl)nicotinamide] the fold induction at 1 µM (A549 cells) was > 1.5 and the IC50 (human 15-PGDH) was ≤ 100 nM.
In the case of `O=C(Cc1cccnc1)Nc1cncc(-c2cccc3c(C(=O)N4CCCCC4)cnn23)c1` [Example 327, N-(5-(3-(piperidine-1-carbonyl)pyrazolo[1,5-a]pyridin-7-yl)pyridin-3-yl)-2-(pyridin-3-yl)acetamide], the fold induction at 1 µM (A549 cells) is reported as > 1.5 and the IC50 (human 15-PGDH) is reported as ≤ 100 nM.
`Cc1nc(-c2c(F)cc(-c3cccc4c(C(=O)N5CCCCC5)cnn34)cc2F)no1` [Example 328, (7-(3,5-difluoro-4-(5-methyl-1,2,4-oxadiazol-3-yl)phenyl)pyrazolo[1,5-a]pyridin-3-yl)(piperidin-1-yl)methanone] was tested, and the fold induction at 1 µM (A549 cells) was > 1.5 and the IC50 (human 15-PGDH) was ≤ 100 nM.
`O=C(c1cnn2c(-c3cc(-c4noc(=O)[nH]4)cc([N+](=O)[O-])c3)cccc12)N1CCCCC1` [Example 329, 3-(3-nitro-5-(3-(piperidine-1-carbonyl)pyrazolo[1,5-a]pyridin-7-yl)phenyl)-1,2,4-oxadiazol-5(4H)-one] was tested, and the fold induction at 1 µM (A549 cells) was > 1.5 and the IC50 (human 15-PGDH) was ≤ 100 nM.
In the case of `Cc1nc(-c2cc(-c3cccc4c(C(=O)N5CCCCC5)cnn34)cc([N+](=O)[O-])c2)no1` [Example 330, (7-(3-(5-methyl-1,2,4-oxadiazol-3-yl)-5-nitrophenyl)pyrazolo[1,5-a]pyridin-3-yl)(piperidin-1-yl)methanone], the fold induction at 1 µM (A549 cells) is reported as > 1.5 and the IC50 (human 15-PGDH) is reported as ≤ 100 nM.
With `O=C(c1cnn2c(-c3cc(F)c(-c4noc(=O)[nH]4)c(F)c3)cccc12)N1CCCCC1` [Example 331, 3-(2,6-difluoro-4-(3-(piperidine-1-carbonyl)pyrazolo[1,5-a]pyridin-7-yl)phenyl)-1,2,4-oxadiazol-5(4H)-one] the fold induction at 1 µM (A549 cells) was > 1.5 and the IC50 (human 15-PGDH) was ≤ 100 nM.
`O=C(c1cnn2c(-c3ccc(NCCc4cccnc4)nc3)cccc12)N1CCCCC1` [Example 332, piperidin-1-yl(7-(6-((2-(pyridin-3-yl)ethyl)amino)pyridin-3-yl)pyrazolo[1,5-a]pyridin-3-yl)methanone] was tested, and the fold induction at 1 µM (A549 cells) was > 1.5 and the IC50 (human 15-PGDH) was ≤ 100 nM.
With `O=C(Nc1cncc(-c2cccc3c(C(=O)N4CCCCC4)cnn23)c1)c1cncnc1` [Example 334, N-(5-(3-(piperidine-1-carbonyl)pyrazolo[1,5-a]pyridin-7-yl)pyridin-3-yl)pyrimidine-5-carboxamide] the fold induction at 1 µM (A549 cells) was > 1.5 and the IC50 (human 15-PGDH) was ≤ 100 nM.

Reference: patent EP4653437A2 (Innovo Therapeutics Inc., priority 2023, dated 2024)
